Data from PubChem BioAssay (NCI).
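Following 48 hours of exposure in 96-well plates, responses at five concentrations were used to interpolate endpoints linearly. GI50: concentration for 50% inhibition of growth. The concentration for full growth arrest is given as TGI.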

Experiments:
Experiment in all cases: NCI tumour cell line growth inhibition, 48 h
NCI-H226 lung = system: NCI-H226 lung
NCI-H23 lung = system: NCI-H23 lung
NCI-H460 lung = system: NCI-H460 lung
NCI-H522 lung = system: NCI-H522 lung
NCI/ADR-RES ovarian = system: NCI/ADR-RES ovarian
OVCAR-4 ovarian = system: OVCAR-4 ovarian
OVCAR-5 ovarian = system: OVCAR-5 ovarian
PC-3 prostate = system: PC-3 prostate
RPMI-8226 leukemia = system: RPMI-8226 leukemia
RXF 393 renal = system: RXF 393 renal
SF-268 CNS = system: SF-268 CNS
SF-295 CNS = system: SF-295 CNS
SF-539 CNS = system: SF-539 CNS
SK-MEL-2 melanoma = system: SK-MEL-2 melanoma
SK-MEL-28 melanoma = system: SK-MEL-28 melanoma
SK-MEL-5 melanoma = system: SK-MEL-5 melanoma
SK-OV-3 ovarian = system: SK-OV-3 ovarian
SN12C renal = system: SN12C renal
SNB-19 CNS = system: SNB-19 CNS
SNB-75 CNS = system: SNB-75 CNS
SR leukemia = system: SR leukemia
SW-620 colon = system: SW-620 colon
T-47D breast = system: T-47D breast
U251 CNS = system: U251 CNS
UACC-257 melanoma = system: UACC-257 melanoma
UACC-62 melanoma = system: UACC-62 melanoma
UO-31 renal = system: UO-31 renal

COc1ccc2c(c1)c(CC(=O)[Se]CCC#N)c(C)n2C(=O)c1ccc(Cl)cc1
TGI (NCI-H226 lung): 4.01 µM
GI50 (NCI-H23 lung): 2.28 µM
TGI (NCI-H23 lung): 5.86 µM
GI50 (NCI-H460 lung): 2.37 µM
TGI (NCI-H460 lung): 8.38 µM
GI50 (NCI-H522 lung): 1.84 µM
TGI (NCI-H522 lung): 3.54 µM
GI50 (NCI/ADR-RES ovarian): 2.18 µM
TGI (NCI/ADR-RES ovarian): 6.31 µM
GI50 (OVCAR-4 ovarian): 2.38 µM
TGI (OVCAR-4 ovarian): 6.94 µM
GI50 (OVCAR-5 ovarian): 2.8 µM
TGI (OVCAR-5 ovarian): 8.87 µM
GI50 (PC-3 prostate): 2.54 µM
TGI (PC-3 prostate): 7.35 µM
GI50 (RPMI-8226 leukemia): 2.51 µM
TGI (RPMI-8226 leukemia): 6.99 µM
GI50 (RXF 393 renal): 1.52 µM
TGI (RXF 393 renal): 3.17 µM
GI50 (SF-268 CNS): 2.31 µM
TGI (SF-268 CNS): 5.07 µM
GI50 (SF-295 CNS): 1.8 µM
TGI (SF-295 CNS): 3.3 µM
GI50 (SF-539 CNS): 2.02 µM
TGI (SF-539 CNS): 4.36 µM
GI50 (SK-MEL-2 melanoma): 2.39 µM
TGI (SK-MEL-2 melanoma): 5.43 µM
GI50 (SK-MEL-28 melanoma): 2.19 µM
TGI (SK-MEL-28 melanoma): 5.66 µM
GI50 (SK-MEL-5 melanoma): 2.05 µM
TGI (SK-MEL-5 melanoma): 4.18 µM
GI50 (SK-OV-3 ovarian): 3.62 µM
TGI (SK-OV-3 ovarian): 6.33 µM
GI50 (SN12C renal): 2.49 µM
TGI (SN12C renal): 6.67 µM
GI50 (SNB-19 CNS): 1.89 µM
TGI (SNB-19 CNS): 3.58 µM
GI50 (SNB-75 CNS): 1.5 µM
TGI (SNB-75 CNS): 3.72 µM
GI50 (SR leukemia): 3.78 µM
TGI (SR leukemia): > 100 µM
GI50 (SW-620 colon): 3.41 µM
TGI (SW-620 colon): 10.4 µM
GI50 (T-47D breast): 9.78 µM
TGI (T-47D breast): 38.8 µM
GI50 (U251 CNS): 1.66 µM
TGI (U251 CNS): 3.11 µM
GI50 (UACC-257 melanoma): 1.6 µM
TGI (UACC-257 melanoma): 3.46 µM
GI50 (UACC-62 melanoma): 1.94 µM
TGI (UACC-62 melanoma): 4.7 µM
GI50 (UO-31 renal): 1.73 µM
TGI (UO-31 renal): 4.2 µM
